Activity calls are given as the source filed them. The calls are words filed in the database; no cut-off is given here.
These compounds were tested on Pseudomonas aeruginosa (assay: Competitive inhibition of Pseudomonas aeruginosa 101/1477 metallo-beta-lactamase IMP-1 expressed in Escherichia coli BL21 (DE3) using benzylpenicillin as substrate by spectrophotometric analysis).

| SMILES | Kic |
| --- | --- |
| O=C(O)C1CCCCN1C(=O)CS (racemic) | 3.4 µM |
| O=C(O)CC(=O)N1CCC[C@@H]1C(=O)O | inactive |
| CC(=O)SCC(=O)N1CCCCC1C(=O)O (racemic) | 24 µM |
| O=C(O)C1CCCCN1C(=O)CCS (racemic) | 10 µM |
| O=C(O)CCC(=O)N1CCC[C@H]1C(=O)O | inactive |
| O=C(O)[C@@H]1CCCN1C(=O)CS | 2.2 µM |
| O=C(O)[C@H]1CCCN1C(=O)CS | 2.3 µM |
| O=C(O)CCC(=O)N1CCC[C@@H]1C(=O)O | inactive |
| O=C(O)CC(=O)N1CCC[C@H]1C(=O)O | inactive |

Now from value to compound:

| Kic | SMILES |
| --- | --- |
| inactive | O=C(O)CCCC(=O)N1CCC[C@@H]1C(=O)O |
| 290 µM | O=C(O)COC[C@H]1CCCN1C(=O)CS |
| 7.1 µM | O=C(O)C1CCCCN1C(=O)CCCS (racemic) |
| 7.2 µM | O=C(O)[C@@H]1CCCN1C(=O)CCCS |
| 363 µM | O=C(O)COC[C@H]1CCCN1C(=O)CCCS |
| 2.9 µM | O=C(O)[C@H]1CCCN1C(=O)CCS |
| 5.8 µM | O=C(O)[C@H]1CCCN1C(=O)CCCS |
| 390 µM | O=C(O)COC[C@H]1CCCN1C(=O)CCS |
| 9.9 µM | O=C(O)[C@@H]1CCCN1C(=O)CCS |
| inactive | O=C(O)CCCC(=O)N1CCC[C@H]1C(=O)O |

From ChEMBL document CHEMBL3779791, “Captopril analogues as metallo-β-lactamase inhibitors” (Bioorg Med Chem Lett, 2016)
